Literature values, collected in patent US8138216B2, “Cannabinoid receptor antagonists/inverse agonists useful for treating metabolic disorders, including obesity and diabetes” (Jenrin Discovery, Inc., priority 2007, dated 2012).

System: patients with type 2 diabetes
Details: after six months of treatment; baseline value 7.9; patients not treated with other anti-diabetic medications; placebo 0.3%

## Cc1c(C(=O)NN2CCCCC2)nn(-c2ccc(Cl)cc2Cl)c1-c1ccc(Cl)cc1 [rimonabant]
  HbA1c levels lowered: 0.8%
